Laboratory results reported in ChEMBL document CHEMBL1151757, “Synthesis, radiosynthesis, and biological evaluation of fluorine-18-labeled 2beta-carbo(fluoroalkoxy)-3beta-(3'-((Z)-2-haloethenyl)phenyl)nortropanes: candidate radioligands for in vivo imaging of the serotonin transporter with positron emission tomography” (J Med Chem, 2008).

Experiments:
Caudate [1] = assay: Drug uptake in anesthetized cynomolgus monkey brain caudate after 75 mins postinjection; assay type: ADME, organism-based, Macaca fascicularis, Caudate nucleus; settings: in vivo, 1.25 h
Caudate [2] = assay: Drug uptake in anesthetized cynomolgus monkey brain caudate after 35 mins postinjection; assay type: ADME, organism-based, Macaca fascicularis, Caudate nucleus; settings: in vivo
[3] = Ratio of drug uptake in medulla to cerebellum in anesthetized cynomolgus monkey after 185 mins postinjection; assay type: ADME, organism-based, Macaca fascicularis; settings: in vivo
Putamen [4] = assay: Drug uptake in anesthetized cynomolgus monkey brain putamen after 85 mins postinjection; assay type: ADME, organism-based, Macaca fascicularis; design: unit not given here; settings: in vivo
[5] = Ratio of drug uptake in putamen to cerebellum in anesthetized cynomolgus monkey after 3.5 mins postinjection; assay type: ADME, organism-based, Macaca fascicularis; settings: in vivo
Putamen [6] = assay: Drug uptake in anesthetized cynomolgus monkey brain putamen after 235 mins postinjection; assay type: ADME, organism-based, Macaca fascicularis; settings: in vivo
[7] = Ratio of drug uptake in pons to cerebellum in anesthetized cynomolgus monkey after 18.5 mins postinjection; assay type: ADME, organism-based, Macaca fascicularis; settings: in vivo
Caudate [8] = assay: Drug uptake in anesthetized cynomolgus monkey brain caudate after 205 mins postinjection; assay type: ADME, organism-based, Macaca fascicularis, Caudate nucleus; settings: in vivo
Putamen [9] = assay: Drug uptake in anesthetized cynomolgus monkey brain putamen after 9.5 mins postinjection; assay type: ADME, organism-based, Macaca fascicularis; design: unit not given here; settings: in vivo
Putamen [10] = assay: Drug uptake in anesthetized cynomolgus monkey brain putamen after 185 mins postinjection; assay type: ADME, organism-based, Macaca fascicularis; settings: in vivo
Thalamus [11] = assay: Drug uptake in anesthetized cynomolgus monkey brain thalamus after 18.5 mins postinjection; assay type: ADME, organism-based, Macaca fascicularis; design: unit not given here; settings: in vivo
Caudate [12] = assay: Drug uptake in anesthetized cynomolgus monkey brain caudate after 85 mins postinjection; assay type: ADME, organism-based, Macaca fascicularis, Caudate nucleus; settings: in vivo
[13] = Ratio of drug uptake in pons to cerebellum in anesthetized cynomolgus monkey after 35 mins postinjection; assay type: ADME, organism-based, Macaca fascicularis; settings: in vivo
[14] = Ratio of drug uptake in putamen to cerebellum in anesthetized cynomolgus monkey after 35 mins postinjection; assay type: ADME, organism-based, Macaca fascicularis; settings: in vivo
[15] = Drug uptake in anesthetized cynomolgus monkey brain frontal lobe after 215 mins postinjection; assay type: ADME, organism-based, Macaca fascicularis; settings: in vivo
Medulla [16] = assay: Drug uptake in anesthetized cynomolgus monkey brain medulla after 165 mins postinjection; assay type: ADME, organism-based, Macaca fascicularis; settings: in vivo, 2.75 h
[17] = Ratio of drug uptake in medulla to cerebellum in anesthetized cynomolgus monkey after 9.5 mins postinjection; assay type: ADME, organism-based, Macaca fascicularis; settings: in vivo
Putamen [18] = assay: Drug uptake in anesthetized cynomolgus monkey brain putamen after 215 mins postinjection; assay type: ADME, organism-based, Macaca fascicularis; settings: in vivo
Thalamus [19] = assay: Drug uptake in anesthetized cynomolgus monkey brain thalamus after 4.5 mins postinjection; assay type: ADME, organism-based, Macaca fascicularis; design: unit not given here; settings: in vivo, 0.075 h
Midbrain [20] = assay: Drug uptake in anesthetized cynomolgus monkey brain midbrain after 35 mins postinjection; assay type: ADME, organism-based, Macaca fascicularis; design: unit not given here; settings: in vivo
[21] = Ratio of drug uptake in occipital lobe to cerebellum in anesthetized cynomolgus monkey after 135 mins postinjection; assay type: ADME, organism-based, Macaca fascicularis; settings: in vivo, 2.25 h
[22] = Ratio of drug uptake in frontal lobe to cerebellum in anesthetized cynomolgus monkey after 205 mins postinjection; assay type: ADME, organism-based, Macaca fascicularis; settings: in vivo
Thalamus [23] = assay: Drug uptake in anesthetized cynomolgus monkey brain thalamus after 75 mins postinjection; assay type: ADME, organism-based, Macaca fascicularis; design: unit not given here; settings: in vivo, 1.25 h
[24] = Drug uptake in anesthetized cynomolgus monkey brain frontal lobe after 105 mins postinjection; assay type: ADME, organism-based, Macaca fascicularis; settings: in vivo, 1.75 h
Pons [25] = assay: Drug uptake in anesthetized cynomolgus monkey brain pons after 205 mins postinjection; assay type: ADME, organism-based, Macaca fascicularis; settings: in vivo
Pons [26] = assay: Drug uptake in anesthetized cynomolgus monkey brain pons after 3.5 mins postinjection; assay type: ADME, organism-based, Macaca fascicularis; settings: in vivo
Putamen [27] = assay: Drug uptake in anesthetized cynomolgus monkey brain putamen after 35 mins postinjection; assay type: ADME, organism-based, Macaca fascicularis; design: unit not given here; settings: in vivo
[28] = Drug uptake in anesthetized cynomolgus monkey brain occipital lobe after 195 mins postinjection; assay type: ADME, organism-based, Macaca fascicularis; settings: in vivo, 3.25 h
Medulla [29] = assay: Drug uptake in anesthetized cynomolgus monkey brain medulla after 3.5 mins postinjection; assay type: ADME, organism-based, Macaca fascicularis; settings: in vivo
Midbrain [30] = assay: Drug uptake in anesthetized cynomolgus monkey brain midbrain after 115 mins postinjection; assay type: ADME, organism-based, Macaca fascicularis; design: unit not given here; settings: in vivo
Putamen [31] = assay: Drug uptake in anesthetized cynomolgus monkey brain putamen after 1.5 mins postinjection; assay type: ADME, organism-based, Macaca fascicularis; settings: in vivo, 0.025 h
Pons [32] = assay: Drug uptake in anesthetized cynomolgus monkey brain pons after 65 mins postinjection; assay type: ADME, organism-based, Macaca fascicularis; settings: in vivo
[33] = Drug uptake in anesthetized cynomolgus monkey brain frontal lobe after 18.5 mins postinjection; assay type: ADME, organism-based, Macaca fascicularis; settings: in vivo
[34] = Ratio of drug uptake in midbrain to cerebellum in anesthetized cynomolgus monkey after 27.5 mins postinjection; assay type: ADME, organism-based, Macaca fascicularis; settings: in vivo
[35] = Drug uptake in anesthetized cynomolgus monkey brain cerebellum after 12.5 mins postinjection; assay type: ADME, organism-based, Macaca fascicularis; settings: in vivo
Thalamus [36] = assay: Drug uptake in anesthetized cynomolgus monkey brain thalamus after 35 mins postinjection; assay type: ADME, organism-based, Macaca fascicularis; design: unit not given here; settings: in vivo
Thalamus [37] = assay: Drug uptake in anesthetized cynomolgus monkey brain thalamus after 235 mins postinjection; assay type: ADME, organism-based, Macaca fascicularis; design: unit not given here; settings: in vivo
Pons [38] = assay: Drug uptake in anesthetized cynomolgus monkey brain pons after 2.5 mins postinjection; assay type: ADME, organism-based, Macaca fascicularis; settings: in vivo
Midbrain [39] = assay: Drug uptake in anesthetized cynomolgus monkey brain midbrain after 105 mins postinjection; assay type: ADME, organism-based, Macaca fascicularis; design: unit not given here; settings: in vivo, 1.75 h
Putamen [40] = assay: Drug uptake in anesthetized cynomolgus monkey brain putamen after 225 mins postinjection; assay type: ADME, organism-based, Macaca fascicularis; settings: in vivo, 3.75 h
[41] = Drug uptake in anesthetized cynomolgus monkey brain occipital lobe after 0.5 mins postinjection; assay type: ADME, organism-based, Macaca fascicularis; settings: in vivo
Thalamus [42] = assay: Drug uptake in anesthetized cynomolgus monkey brain thalamus after 0.5 mins postinjection; assay type: ADME, organism-based, Macaca fascicularis; settings: in vivo
[43] = Ratio of drug uptake in pons to cerebellum in anesthetized cynomolgus monkey after 185 mins postinjection; assay type: ADME, organism-based, Macaca fascicularis; settings: in vivo
Putamen [44] = assay: Drug uptake in anesthetized cynomolgus monkey brain putamen after 125 mins postinjection; assay type: ADME, organism-based, Macaca fascicularis; settings: in vivo
Medulla [45] = assay: Drug uptake in anesthetized cynomolgus monkey brain medulla after 185 mins postinjection; assay type: ADME, organism-based, Macaca fascicularis; settings: in vivo
[46] = Drug uptake in anesthetized cynomolgus monkey brain cerebellum after 205 mins postinjection; assay type: ADME, organism-based, Macaca fascicularis; settings: in vivo
Caudate [47] = assay: Drug uptake in anesthetized cynomolgus monkey brain caudate after 3.5 mins postinjection; assay type: ADME, organism-based, Macaca fascicularis, Caudate nucleus; settings: in vivo
Pons [48] = assay: Drug uptake in anesthetized cynomolgus monkey brain pons after 185 mins postinjection; assay type: ADME, organism-based, Macaca fascicularis; settings: in vivo
Thalamus [49] = assay: Drug uptake in anesthetized cynomolgus monkey brain thalamus after 9.5 mins postinjection; assay type: ADME, organism-based, Macaca fascicularis; design: unit not given here; settings: in vivo
[50] = Ratio of drug uptake in medulla to cerebellum in anesthetized cynomolgus monkey after 0.5 mins postinjection; assay type: ADME, organism-based, Macaca fascicularis; settings: in vivo
Pons [51] = assay: Drug uptake in anesthetized cynomolgus monkey brain pons after 125 mins postinjection; assay type: ADME, organism-based, Macaca fascicularis; settings: in vivo
Putamen [52] = assay: Drug uptake in anesthetized cynomolgus monkey brain putamen after 95 mins postinjection; assay type: ADME, organism-based, Macaca fascicularis; design: unit not given here; settings: in vivo
Midbrain [53] = assay: Drug uptake in anesthetized cynomolgus monkey brain midbrain after 27.5 mins postinjection; assay type: ADME, organism-based, Macaca fascicularis; design: unit not given here; settings: in vivo
Caudate [54] = assay: Drug uptake in anesthetized cynomolgus monkey brain caudate after 125 mins postinjection; assay type: ADME, organism-based, Macaca fascicularis, Caudate nucleus; settings: in vivo
[55] = Drug uptake in anesthetized cynomolgus monkey brain cerebellum after 18.5 mins postinjection; assay type: ADME, organism-based, Macaca fascicularis; settings: in vivo
[56] = Ratio of drug uptake in frontal lobe to cerebellum in anesthetized cynomolgus monkey after 235 mins postinjection; assay type: ADME, organism-based, Macaca fascicularis; settings: in vivo
[57] = Ratio of drug uptake in frontal lobe to cerebellum in anesthetized cynomolgus monkey after 75 mins postinjection; assay type: ADME, organism-based, Macaca fascicularis; settings: in vivo, 1.25 h
[58] = Ratio of drug uptake in thalamus to cerebellum in anesthetized cynomolgus monkey after 155 mins postinjection; assay type: ADME, organism-based, Macaca fascicularis; settings: in vivo
[59] = Drug uptake in anesthetized cynomolgus monkey brain cerebellum after 235 mins postinjection; assay type: ADME, organism-based, Macaca fascicularis; settings: in vivo
Midbrain [60] = assay: Drug uptake in anesthetized cynomolgus monkey brain midbrain after 75 mins postinjection; assay type: ADME, organism-based, Macaca fascicularis; design: unit not given here; settings: in vivo, 1.25 h
Thalamus [61] = assay: Drug uptake in anesthetized cynomolgus monkey brain thalamus after 135 mins postinjection; assay type: ADME, organism-based, Macaca fascicularis; design: unit not given here; settings: in vivo, 2.25 h
Midbrain [62] = assay: Drug uptake in anesthetized cynomolgus monkey brain midbrain after 45 mins postinjection; assay type: ADME, organism-based, Macaca fascicularis; design: unit not given here; settings: in vivo, 0.75 h
Medulla [63] = assay: Drug uptake in anesthetized cynomolgus monkey brain medulla after 155 mins postinjection; assay type: ADME, organism-based, Macaca fascicularis; settings: in vivo
[64] = Drug uptake in anesthetized cynomolgus monkey brain cerebellum after 75 mins postinjection; assay type: ADME, organism-based, Macaca fascicularis; settings: in vivo, 1.25 h
Thalamus [65] = assay: Drug uptake in anesthetized cynomolgus monkey brain thalamus after 215 mins postinjection; assay type: ADME, organism-based, Macaca fascicularis; design: unit not given here; settings: in vivo
[66] = Ratio of drug uptake in putamen to cerebellum in anesthetized cynomolgus monkey after 215 mins postinjection; assay type: ADME, organism-based, Macaca fascicularis; settings: in vivo
Medulla [67] = assay: Drug uptake in anesthetized cynomolgus monkey brain medulla after 27.5 mins postinjection; assay type: ADME, organism-based, Macaca fascicularis; settings: in vivo
Medulla [68] = assay: Drug uptake in anesthetized cynomolgus monkey brain medulla after 9.5 mins postinjection; assay type: ADME, organism-based, Macaca fascicularis; settings: in vivo

O=C(OCCC[18F])C1C2CCC(CC1c1cccc(/C=C\I)c1)N2 (stereo not drawn)
Drug uptake (Caudate [1]): 4.05
Drug uptake (Caudate [2]): 3.9
Ratio [3]: 1.8
Drug uptake (Putamen [4]): 4.82
Ratio [5]: 0.8
Drug uptake (Putamen [6]): 3.02
Ratio [7]: 0.9
Drug uptake (Caudate [8]): 2.65
Drug uptake (Putamen [9]): 3.75
Drug uptake (Putamen [10]): 3.51
Drug uptake (Thalamus [11]): 4.22
Drug uptake (Caudate [12]): 3.94
Ratio [13]: 0.9
Ratio [14]: 1.1
Drug uptake [15]: 1.99
Drug uptake (Medulla [16]): 4.45
Ratio [17]: 0.9
Drug uptake (Putamen [18]): 3.13
Drug uptake (Thalamus [19]): 2.07
Drug uptake (Midbrain [20]): 5.01
Ratio [21]: 1.1
Ratio [22]: 1
Drug uptake (Thalamus [23]): 4.76
Drug uptake [24]: 2.58
Drug uptake (Pons [25]): 3.34
Drug uptake (Pons [26]): 1.71
Drug uptake (Putamen [27]): 4.99
Drug uptake [28]: 2.34
Drug uptake (Medulla [29]): 2.2
Drug uptake (Midbrain [30]): 4.76
Drug uptake (Putamen [31]): 0.27
Drug uptake (Pons [32]): 4.54
Drug uptake [33]: 2.5
Ratio [34]: 1
Drug uptake [35]: 4.52
Drug uptake (Thalamus [36]): 4.81
Drug uptake (Thalamus [37]): 2.78
Drug uptake (Pons [38]): 0.95
Drug uptake (Midbrain [39]): 4.82
Drug uptake (Putamen [40]): 3.05
Drug uptake [41]: 0.01
Drug uptake (Thalamus [42]): 0.01
Ratio [43]: 1.5
Drug uptake (Putamen [44]): 4.31
Drug uptake (Medulla [45]): 3.93
Drug uptake [46]: 1.91
Drug uptake (Caudate [47]): 1.15
Drug uptake (Pons [48]): 3.31
Drug uptake (Thalamus [49]): 3.45
Ratio [50]: 1.5
Drug uptake (Pons [51]): 3.82
Drug uptake (Putamen [52]): 4.67
Drug uptake (Midbrain [53]): 5.04
Drug uptake (Caudate [54]): 3.51
Drug uptake [55]: 4.74
Ratio [56]: 0.9
Ratio [57]: 0.7
Ratio [58]: 1.6
Drug uptake [59]: 1.93
Drug uptake (Midbrain [60]): 5
Drug uptake (Thalamus [61]): 4.02
Drug uptake (Midbrain [62]): 5.02
Drug uptake (Medulla [63]): 4.09
Drug uptake [64]: 3.87
Drug uptake (Thalamus [65]): 3.02
Ratio [66]: 1.5
Drug uptake (Medulla [67]): 5.08
Drug uptake (Medulla [68]): 3.97
